Where two headings read alike, the source gives them in different places.
Assays:
[1] = Tissue distribution of PZ-DHA and metabolites after intraperitoneal injection; assay type: in vivo, Balb/c female mice; details: female, Balb/c, mouse, intraperitoneal, 100 mg/kg
Experimental: Figure 5 PZ-DHA and metabolites were detected in various organs of PZ-DHA-treated Balb/c female mice. PZ-DHA (100 mg/kg) was administered by intraperitoneal injection to Balb/c female mice and liver, lungs, kidneys, spleen and brain were harvested. Organs were homogenized and PZ-DHA in (A) liver, kidneys, lungs, spleen, and brain was identified and quantified using a calibration curve. The abundance of (B) 4,4′,6′-tri-O-methyl-phloridzin docosahexaenoate in liver, kidneys, lungs, and serum) and (C) phloridzin docosahexaenoate-4,4′-di-O-sulphide in the liver was determined in PZ-DHA equivalence.
(§1) Pharmacokinetic parameters and in vivo generation of PZ-DHA metabolites were studied using Balb/c female mice. Mice were randomly divided into six groups (n = 4/group) and PZ-DHA (100 mg/kg) was administered by intraperitoneal injection. For each mouse, a single blood collection was performed by cardiac puncture at one of six different time points (t = 15, 30, 60, 90, 120, and 240 min). At the end of blood collection, mice were euthanized by cervical dislocation and organs (liver, lungs, kidneys, spleen, and brain) were harvested. Blood samples were allowed to clot by leaving undisturbed at room temperature for 1 h, and serum was separated by centrifuging at 2000×g for 10 min at 4 °C. The serum was carefully removed and stored on ice until further processing. Serum proteins were precipitated by incubating an aliquot of serum with a mixture of acetonitrile:acetone (80:20) containing 0.1 mg/mL quercetin (internal standard) at 4 °C overnight. The supernatant was separated by centrifuging at 14,000×g for 10 min at 4 °C. Excess solvent was evaporated using nitrogen flush and mixed with methanol and filtered. PZ-DHA-metabolites in the filtrate were identified using a UPLC-ESI–MS/MS (Waters Limited, Mississauga, ON, Canada). Organs were homogenized in PBS (1:5 w/v). Supernatants were collected by centrifugation at 14,000 × g for 15 min at 4 °C. Proteins were precipitated by incubating in acetonitrile:acetone (80:20) containing 0.1 mg/mL quercetin (internal standard) at 4 °C overnight. Supernatants were treated as explained above, and PZ-DHA and/or PZ-DHA-metabolites were identified.

[2] = Serum pharmacokinetics after intraperitoneal injection; assay type: in vivo, Balb/c female mice; details: 100 mg/kg intraperitoneal; for Cmax: read-out: Maximum serum concentration (Cmax)
Experimental: Figure 4 Intraperitoneal administration of PZ-DHA results in absorption into the systemic circulation of Balb/c female mice. PZ-DHA (100 mg/kg) was administered by intraperitoneal injection to Balb/c female mice. Blood collection was performed and serum was separated. PZ-DHA was identified and quantified using a calibration curve (R^2 = 0.99) generated using a standard series of PZ-DHA concentrations made in mouse serum. PZ-DHA concentration was plotted against time. The elimination rate of PZ-DHA was determined using a semi-log curve of PZ-DHA concentration vs. time curve.
as §1
A calibration curve (R^2 = 0.99) generated using a standard series of PZ-DHA concentrations prepared in mouse serum (spiked with 0.1 mg/mL quercetin) was used for the quantification of PZ-DHA. The average PZ-DHA concentrations were plotted against time. The maximum serum concentration of serum (Cmax) and the time to reach Cmax (Tmax) were read directly from the graph. The linear trapezoidal method was used to calculate the area under the curve (AUC) from t = 0 to infinity, the biological half-life of PZ-DHA (t1/2), determined using the plotted curve in Graphpad Prism software (version 5; La Jolla, CA, USA). The clearance following IP administration was determined by non-compartmental analysis using the relationship CL/F = D/AUC. The elimination rate constant λ was determined by linear regression of the elimination phase of the semi-log transformed concentration versus time curve. The t1/2 was calculated using the formula 0.693/λ and the volume of distribution Vd/F from the formula Vd/F = CL/(F*λ).

[3] = brain/serum, read-out: Tissue/serum ratio of PZ-DHA (Mean ± SD) Brain/serum
[4] = kidneys/serum, read-out: Tissue/serum ratio of PZ-DHA (Mean ± SD) Kidneys/serum
[5] = liver/serum, read-out: Tissue/serum ratio of PZ-DHA (Mean ± SD) Liver/serum
[6] = lungs/serum, read-out: Tissue/serum ratio of PZ-DHA (Mean ± SD) Lungs/serum
[7] = spleen/serum, read-out: Tissue/serum ratio of PZ-DHA (Mean ± SD) Spleen/serum

Q: What does the source list for CC/C=C\C/C=C\C/C=C\C/C=C\C/C=C\C/C=C\CCC(=O)OC[C@H]1O[C@@H](Oc2cc(O)cc(O)c2C(=O)CCc2ccc(O)cc2)[C@H](O)[C@@H](O)[C@@H]1O [PZ-DHA, phloridzin docosahexaenoate]?
A: Kp at 15 min [1, 3]: 0.51 ± 0.17; Kp at 30 min [1, 3]: 0.64 ± 0.11; Kp at 60 min [1, 3]: 0.95 ± 0.68; Kp at 90 min [1, 3]: 1.01 ± 0.19; Kp at 120 min [1, 3]: 1.31 ± 0.67; Kp at 240 min [1, 3]: 1.94 ± 0.75; Kp at 15 min [1, 4]: 0.66 ± 0.03; Kp at 30 min [1, 4]: 1.29 ± 0.22; Kp at 60 min [1, 4]: 0.81 ± 0.34; Kp at 90 min [1, 4]: 0.89 ± 0.26; Kp at 120 min [1, 4]: 2.71 ± 1.41; Kp at 240 min [1, 4]: 2.71 ± 1.08; Kp at 15 min [1, 5]: 0.14 ± 0.06; Kp at 30 min [1, 5]: 0.16 ± 0.08; Kp at 60 min [1, 5]: 4.68 ± 2.02; Kp at 90 min [1, 5]: 2.69 ± 2.17; Kp at 120 min [1, 5]: 1.03 ± 0.73; Kp at 240 min [1, 5]: 0.99 ± 0.23; Kp at 15 min [1, 6]: 3.33 ± 1.51; Kp at 30 min [1, 6]: 2.04 ± 1.09; Kp at 60 min [1, 6]: 1.05 ± 0.014; Kp at 90 min [1, 6]: 3.51 ± 2.44; Kp at 120 min [1, 6]: 3.82 ± 1.74; Kp at 240 min [1, 6]: 4.97 ± 1.37; Kp at 15 min [1, 7]: 3.29 ± 1.56; Kp at 30 min [1, 7]: 3.17 ± 0.72; Kp at 60 min [1, 7]: 4.18 ± 1.01; Kp at 90 min [1, 7]: 5.24 ± 1.75; Kp at 120 min [1, 7]: 10.9 ± 8.42; Kp at 240 min [1, 7]: 16.1 ± 5.98; Clearance (CL/F) [2]: 1.37 mL/min; Volume of distribution (Vd/F) [2]: 56.5 mL; Biological half-life (T1/2) ([2]; serum): 28.7 min; Cmax ([2]; serum): 23.4 µM; serum detectability at the last measured time ([2]; 240 min): remained detectable; Tmax ([2]; female, Balb/c, mouse, ip, serum, read-out: Time to reach maximum serum concentration (Tmax) (converted)): 60 min; half-life ([2]; female, Balb/c, mouse, serum, ip, 100 mg/kg, serum, read-out: Biological half-life (T1/2)): 28 min; Cmax ([2]; female, Balb/c, mouse, serum, ip, 100 mg/kg, serum): 23.7 µM; Vd/F ([2]; female, Balb/c, mouse, serum, ip, 100 mg/kg, read-out: Volume of distribution (Vd/F)): 0.057 L; AUC ([2]; female, Balb/c, mouse, serum, ip, t = 0 to infinity, read-out: The area under the curve (AUC) (converted)): 36.6 µM·h; k el ([2]; female, Balb/c, mouse, serum, ip, read-out: Elimination rate (λz) (converted)): 0.0004 s⁻¹; concentration at 15 min ([2]; female, Balb/c, mouse, serum, ip, 15 min, read-out: serum concentration at the 1st measured time point): 0.9 ± 0.4 µM

Source: article PMC7721897, “Metabolism and pharmacokinetics of a novel polyphenol fatty acid ester phloridzin docosahexaenoate in Balb/c female mice” (Scientific Reports, 2020)
